Test results from patent US20190308956A1, “PIPERAZINE DERIVATIVES AS ANTIVIRAL AGENTS WITH INCREASED THERAPEUTIC ACTIVITY” (SERVICIO ANDALUZ DE SALUD, priority 2016, published 2019).

Legend:
[1] = test system: HAdV5-GFP; experiment: Plaque assay, HAdV5-GFP in 293β5 cells; assay type: cell-based; conditions: for inhibition at 10 µM: read-out: Percentage of plaque formation inhibition, HAdV5-GFP, 10 μM, 293β5 cell line
Method: 1.5. Plaque assay. For low MOI infections, active compounds were further evaluated in a plaque assay. 293β5 cells were seeded in 6-well plates at 4×10^5 cells per well in duplicate for each condition. When cells reached 80-90% confluency, they were infected with HAdV5-GFP or HAdV16-GFP (0.06 vp/cell) and rocked for 2 h at 37° C. The inoculum was removed and the cells were washed once with PBS. The cells were then carefully overlaid with 4 ml/well of equal parts of 1.6% […] Difco Agar Noble (Becton, Dickinson & Co, Sparks, MD) and 2× EMEM (BioWhittaker) supplemented with 2x penicillin/streptomycin, 2× L-glutamine and 10% FBS. The mixture also contained compound in concentrations ranging from 5 to 1 μM. Following incubation for 7 days at 37° C., plates were scanned with a Typhoon 9410 imager (GE Healthcare Life Sciences), and plaques were quantified with ImageJ.43
For the plaque assay 293β5 cells were infected with HAdV5-GFP (in the presence of compound at 10 μM) (Table 2). From this generation of compounds, our primary screening identified 4 compounds (12, 13, 22 and 25) that inhibited HAdV5-GFP plaque formation >90% compared to a control with the same volume of DMSO.

[2] = test system: HAdV5-GFP; experiment: Entry assay, HAdV5-GFP in A549 cells (GFP expression); assay type: cell-based
Method: 1.3. Entry assay. An initial rapid screening was performed using human A549 epithelial cells (3×10^5 cells/well in Corning black wall, clear bottom 96-well plates) infected with HAdV5-GFP (2,000 vp/cell) in the presence of 50 μM of the candidate antiviral compounds. Virus was preincubated with the compounds (individual and mixed) for 45 minutes at 4° C., and then added to cells. A standard infection curve was generated in parallel by infecting cells in the absence of compounds using serial two-fold dilutions of virus. All reactions were done in triplicate. Cells, virus and compounds were incubated for 48 h at 37° C. and 5% CO2. Infection, as measured by HAdV-mediated GFP expression, was analyzed using a Typhoon 9410 imager (GE Healthcare Life Sciences), and quantified with ImageQuantTL (GE Healthcare Life Sciences).

[3] = test system: Acinetobacter baumannii strains resistant to colistine; experiment: Screening of inhibition of bacterial growth at 50 μM; assay type: cell-based; conditions: 5×10^5 CFU/ml, 18 h; for Screening, growth inhibition Ab 24: strain Ab 24, 50 μM
Excerpt: (§1) All of the strains used were Acinetobacter baumannii strains resistant to colistine: Resistance (R)≥4 Sensibility (S)≤2—All of these strains have been disclosed in Valencia R, Arroyo L A, Conde M, Aldana J M, Torres M J, Fernandez-Cuenca F, et al. Nosocomial outbreak of infection with pan-drug-resistant Acinetobacter baumannii in a tertiary care university hospital. Infection control and hospital epidemiology. 2009; 30(3):257-63. The specific strains used were the following: 1, 10, 11, 14, 16, 17, 19, 20, 21R, 22P, 24, 99 and 113.
Evaluation of the inhibition of the bacterial growth of the 4 families of piperazines derivatives was performed by using a final concentration of 50 μM of each piperazine derivative in a concentration of 5×10^5 CFU/ml of each strain of A. baumannii in 96-well plates.
These plates were incubated for 18 hours at 37° C.

[4] = test system: Acinetobacter baumannii strains resistant to colistine; experiment: Minimal inhibitory concentration (MIC), microdilution in MHBII; assay type: cell-based; conditions: 5×10^5 CFU/ml, 18 h; for CMI (MIC) Ab 24: strain Ab 24, MHBII
Excerpt: as §1
Microdilution in cell medium Mueller Hinton Broth II (MHBII). This technique was carried out solely in those piperazines which presented inhibitory activity in the screening study.
We used decreasing concentrations of each piperazine derivative (from 50 μM -0.05 μM) in a concentration of 5×10^5 CFU/ml of each strain of A. baumannii in 96 well plates. These plates were incubated for 18 hours at a temperature 37° C.

[5] = Cytotoxicity assay (alamarBlue cell viability); assay type: cell-based, Human; conditions: human, A549 cells
Method: 1.4. Cytotoxicity assay. The cytotoxicity of the compounds was measured using the AlarmBlue cell viability assay (Invitrogen) according to the manufacturer's instructions. Actively dividing A549 cells were incubated with compounds for 48 h. After the incubation the alamarBlue reagent was added to the cells ( 1/10th alamarBlue reagent in culture medium) for an extra 4 h. The 50% cell cytotoxic concentration (CC50) of the molecules was calculated according to Cheng et al.42 The selectivity index (SI) was evaluated as the ratio of CC50 to IC50, where the IC50 is defined as the concentration of compound that inhibits HAdV infection by 50%.

CC1CN(C(=O)OC(C)(C)C)CCN1C(=O)c1ccc([N+](=O)[O-])cc1 (stereo not drawn) [Compound 10, 4-tert-Butoxycarbonyl-2-methyl-1-(4-nitrobenzoyl)piperazine]
inhibition at 10 µM [1]: 33.6 ± 2.17% | melting point: 115 to 117 °C

CC1CN(C(=O)Cc2ccccc2)CCN1C(=S)Nc1ccc(F)cc1 (stereo not drawn) [Vip 638]
Inhibition assay in plaque [1]: 28.90 ± 23.21 | Starting Inhibition assay [2]: 72.06 ± 14.91 | Screening, growth inhibition Ab 24 [3]: <50 µM | CMI (MIC) Ab 24 [4]: 50 µM

COc1ccc(C(=O)N2CCN(C(=O)C(C)(C)C)CC2C)cc1 (stereo not drawn) [Compound 16, 1-(4-Methoxybenzoyl)-2-methyl-4-pivaloylpiperazine]
inhibition at 10 µM [1]: 0% | melting point: 96 to 97 °C

COc1ccc(NC(=S)N2CCN(C(=O)Cc3ccccc3)CC2C)cc1 (stereo not drawn) [Vip 637]
Inhibition assay in plaque [1]: 29.36 ± 36.56 | Starting Inhibition assay [2]: 61.99 ± 17.15 | Screening, growth inhibition Ab 17 ([3]; strain Ab 17, 50 μM): <50 µM | Screening, growth inhibition Ab 24 [3]: <50 µM | CMI (MIC) Ab 17 ([4]; strain Ab 17, MHBII): 50 µM | CMI (MIC) Ab 24 [4]: >50 µM

COc1ccc(NC(=O)N2CCN(C(=O)C(C)(C)C)CC2c2ccccc2)cc1 (stereo not drawn) [Compound 58, 1-[(4-Methoxyphenyl)aminocarbonyl]-2-phenyl-4-pivaloylpiperazine]
inhibition at 10 µM [1]: 70.1 ± 2.7% | CC50 at 48 h ([5]; 48 h): 199 ± 33.6 µM | melting point: 62 to 65 °C

CC1CN(C(=O)c2cc3ccccc3o2)CCN1C(=O)Nc1ccc(F)cc1F (stereo not drawn) [Compound 39, 4-(Benzofuran-2-carbonyl)-1-[(2,4-difluorophenyl)aminocarbonyl]-2-methylpiperazine]
inhibition at 10 µM [1]: 34.2 ± 13.6% | melting point: 163 to 165 °C

O=C(c1cc2ccccc2o1)N1CCN(C(=O)Nc2ccc(F)cc2)C(c2ccccc2)C1 (stereo not drawn) [Compound 62, 4-(Benzofuran-2-carbonyl)-1-[(4-fluorophenyl)aminocarbonyl]-2-phenylpiperazine]
inhibition at 10 µM [1]: 98.81 ± 0.15% | CC50 at 48 h ([5]; 48 h): 12.5 ± 0.79 µM | melting point: 122 to 124 °C

O=C(c1cc2ccccc2o1)N1CCN(C(=O)Nc2ccc(C(F)(F)F)cc2)C(c2ccccc2)C1 (stereo not drawn) [Compound 61, 4-(Benzofuran-2-carbonyl)-2-phenyl-1-[(4-trifluoromethylphenyl)aminocarbonyl]piperazine]
inhibition at 10 µM [1]: 100% | CC50 at 48 h ([5]; 48 h): 70.7 ± 21.4 µM | melting point: 134 to 136 °C

CC1CN(C(=O)OC(C)(C)C)CCN1C(=O)Nc1ccc(Cl)c(C(F)(F)F)c1 (stereo not drawn) [Compound 31, 4-tert-Butoxycarbonyl-1-[(4-chloro-3-trifluoromethylphenyl)aminocarbonyl]-2-methylpiperazine]
inhibition at 10 µM [1]: 91 to 100% | CC50 at 48 h ([5]; 48 h): 20.8 ± 0.64 µM | melting point: 157 to 159 °C

CC1CN(C(=O)OC(C)(C)C)CCN1C(=O)Nc1ccccc1[N+](=O)[O-] (stereo not drawn) [Compound 29, 4-tert-Butoxycarbonyl-2-methyl-1-[(2-nitrophenyl)aminocarbonyl]piperazine]
inhibition at 10 µM [1]: 50 ± 2.75% | melting point: 199 to 201 °C

CC1CN(C(=O)c2ccccc2)CCN1C(=O)c1ccc([N+](=O)[O-])cc1 (stereo not drawn) [Compound 20, 4-Benzoyl-2-methyl-1-(4-nitrobenzoyl)piperazine]
inhibition at 10 µM [1]: 0% | melting point: 103 to 105 °C

CC1CN(C(=O)c2cc3ccccc3o2)CCN1C(=O)Nc1ccc(F)cc1 (stereo not drawn) [Compound 35, 4-(Benzofuran-2-carbonyl)-1-[(4-fluorophenyl)aminocarbonyl]-2-methylpiperazine]
inhibition at 10 µM [1]: 91 to 100% | CC50 at 48 h [5]: > 200 µM | CC50 at 48 h ([5]; 48 h): 221 ± 29 µM | melting point: 93 to 95 °C

COc1ccc(NC(=O)N2CCN(C(=O)c3cc4ccccc4o3)CC2C)cc1 (stereo not drawn) [Compound 26, 4-(Benzofuran-2-carbonyl)-1-[(4-methoxyphenyl)aminocarbonyl]-2-methylpiperazine]
inhibition at 10 µM [1]: 33.6 ± 14.7% | melting point: 170 to 172 °C

CC1CN(C(=O)c2cc3ccccc3o2)CCN1C(=O)Nc1ccccc1F (stereo not drawn) [Compound 37, 4-(Benzofuran-2-carbonyl)-1-[(2-fluorophenyl)aminocarbonyl]-2-methylpiperazine]
inhibition at 10 µM [1]: 50.9 ± 4.13% | melting point: 127 to 129 °C

CC1CN(C(=O)C(C)(C)C)CCN1C(=O)c1ccc([N+](=O)[O-])cc1 (stereo not drawn) [Compound 15, 2-Methyl-1-(4-nitrobenzoyl)-4-pivaloylpiperazine]
inhibition at 10 µM [1]: 23.1 ± 3.71% | melting point: 143 to 145 °C

CC1CN(C(=O)OC(C)(C)C)CCN1C(=O)Nc1cc(C(F)(F)F)ccc1Cl (stereo not drawn) [Compound 30, 4-tert-Butoxycarbonyl-1-[(2-chloro-5-trifluoromethylphenyl)aminocarbonyl]-2-methylpiperazine]
inhibition at 10 µM [1]: 91 to 100% | CC50 at 48 h ([5]; 48 h): 63.5 ± 8.22 µM | melting point: 98 to 100 °C

COc1ccc(C(=O)N2CCN(C(=O)OC(C)(C)C)CC2C)cc1 (stereo not drawn) [Compound 11, 4-tert-Butoxycarbonyl-1-(4-methoxybenzoyl)-2-methylpiperazine]
inhibition at 10 µM [1]: 33.8 ± 4.02% | melting point: 84 to 87 °C

CC(C)(C)OC(=O)N1CCN(C(=O)Nc2ccc(F)cc2)C(c2ccccc2)C1 (stereo not drawn) [Compound 49, 4-tert-Butoxycarbonyl-1-[(4-fluorophenyl)aminocarbonyl]-2-phenylpiperazine]
inhibition at 10 µM [1]: 75.84 ± 0.49% | CC50 at 48 h ([5]; 48 h): 110 ± 8.09 µM

CC(C)(C)C(=O)N1CCN(C(=O)Nc2ccc(C#N)cc2)C(c2ccccc2)C1 (stereo not drawn) [Compound 57, 1-[(4-Cyanophenyl)aminocarbonyl]-2-phenyl-4-pivaloylpiperazine]
inhibition at 10 µM [1]: 84 ± 6.75% | CC50 at 48 h ([5]; 48 h): 147 ± 38 µM | melting point: 151 to 153 °C

CC(C)(C)OC(=O)N1CCN(C(=O)Nc2cc(C(F)(F)F)ccc2Cl)C(c2ccccc2)C1 (stereo not drawn) [Compound 52, 4-tert-Butoxycarbonyl-1-[(2-chloro-5-trifluoromethylphenyl)aminocarbonyl]-2-phenylpiperazine]
inhibition at 10 µM [1]: 100% | CC50 at 48 h ([5]; 48 h): 93.36 ± 0.73 µM

CC(C)(C)OC(=O)N1CCN(C(=O)Nc2ccc(C(F)(F)F)cc2)C(c2ccccc2)C1 (stereo not drawn) [Compound 48, 4-tert-Butoxycarbonyl-2-phenyl-1-[(4-trifluoromethylphenyl)aminocarbonyl]piperazine]
inhibition at 10 µM [1]: 71.51 ± 0.11% | CC50 at 48 h ([5]; 48 h): 42.1 ± 28.6 µM

CC1CN(C(=O)c2cc3ccccc3o2)CCN1C(=O)Nc1ccc([N+](=O)[O-])cc1 (stereo not drawn) [Compound 25, 4-(Benzofuran-2-carbonyl)-2-methyl-1-[(4-nitrophenyl)aminocarbonyl]piperazine]
inhibition at 10 µM [1]: > 90% | CC50 at 48 h ([5]; 48 h): 51.1 ± 7.35 µM

COc1ccc(NC(=O)N2CCN(C(=O)OC(C)(C)C)CC2c2ccccc2)cc1 (stereo not drawn) [Compound 54, 4-tert-Butoxycarbonyl-1-[(4-methoxyphenyl)aminocarbonyl]-2-phenylpiperazine]
inhibition at 10 µM [1]: 78.9 ± 1.57% | CC50 at 48 h ([5]; 48 h): 133 ± 58.8 µM

CC1CN(C(=O)c2cc3ccccc3o2)CCN1C(=O)Nc1ccccc1[N+](=O)[O-] (stereo not drawn) [Compound 36, 4-(Benzofuran-2-carbonyl)-2-methyl-1-[(2-nitrophenyl)aminocarbonyl]piperazine]
inhibition at 10 µM [1]: 91 to 100% | CC50 at 48 h [5]: > 200 µM | CC50 at 48 h ([5]; 48 h): 203 ± 4.09 µM
